Laboratory results published in a flash point compilation (Sun et al. 2020).
Each block holds one molecule with its values, some of them ahead of it.

What was measured:
[1] = not given; remark: listed apart in the source
[2] = not given; remark: listed apart in the source
[3] = not given; remark: listed apart in the source
[4] = not given; remark: listed apart in the source
[5] = not given; remark: listed apart in the source

SMILES: CC(C)(C)CCCl [1-Chloro-3,3-dimethylbutane]
flash point: 19.1 °C

SMILES: CC(C)CCCl [1-Chloro-3-methylbutane]
flash point: 16.1 °C

SMILES: CCC(C)CCCCCl (stereo not drawn) [1-Chloro-5-methylheptane]
flash point: 52.6 °C

SMILES: CCCCCCCCCCCl [1-Chlorodecane]
flash point: 83.1 °C

SMILES: CCCCCCCCCCCCCl [1-Chlorododecane]
flash point: 104.6 °C

SMILES: CCCCCCCCCCCCCCCCCCl [1-Chloroheptadecane]
flash point: 145.2 °C

SMILES: CCCCCCCCCCCCCCCCCCCl [1-Chlorooctadecane]
flash point: 184.1 °C

SMILES: CCCCCCCCCCCCCCCl [1-Chlorotetradecane]
flash point: 130.1 °C

SMILES: C=[C](OCC)[Sn]([CH2]CCC)([CH2]CCC)[CH2]CCC [1-ETHOXYVINYLTRI-n-BUTYLTIN]
flash point [1]: 113.00 °C

SMILES: CC(C)(C)C(C)(C)C [2,2,3,3-Tetramethylbutane]
flash point [2]: -0 °C

SMILES: CC(C)C(C)C(C)(C)C (stereo not drawn) [2,2,3,4-Tetramethylpentane]
flash point [2]: 11 °C

SMILES: CC(C)C(C)(C)C [2,2,3-Trimethylbutane]
flash point [2]: -26 °C

SMILES: CCCC(C)C(C)(C)C (stereo not drawn) [2,2,3-Trimethylhexane]
flash point [2]: 15 °C

SMILES: CC(C)(C)CC(C)(C)C [2,2,4,4-Tetramethylpentane]
flash point [2]: 3 °C

SMILES: CC(C)(C)CCC(C)(C)C [2,2,5,5-Tetramethylhexane]
flash point [2]: 31 °C

SMILES: CC(C)CCC(C)(C)C [2,2,5-Trimethylhexane]
flash point [2]: 13 °C

SMILES: CCC(C)C(C)(C)C(C)C (stereo not drawn) [2,3,3,4-Tetramethylhexane]
flash point [2]: 31 °C

SMILES: CCC(C)(C)C(C)C [2,3,3-Trimethylpentane]
flash point [2]: -0 °C

SMILES: CCC(C)C(C)C(C)C (stereo not drawn) [2,3,4-Trimethylhexane]
flash point [2]: 15 °C

SMILES: CCC(C)CC(C)C(C)C (stereo not drawn) [2,3,5-Trimethylheptane]
flash point [2]: 31 °C

SMILES: CC(C)CC(C)C(C)C (stereo not drawn) [2,3,5-Trimethylhexane]
flash point [2]: 15 °C

SMILES: CCC(C)(CC)C(C)C [2,3-Dimethyl-3-ethylpentane]
flash point [2]: 15 °C

SMILES: CCCC(C)C(C)C (stereo not drawn) [2,3-Dimethylhexane]
flash point [2]: 10 °C

SMILES: CCC(C)C(C)C (stereo not drawn) [2,3-Dimethylpentane]
flash point [2]: -15 °C

SMILES: CCC(C)C(C)CC(C)C (stereo not drawn) [2,4,5-Trimethylheptane]
flash point [2]: 31 °C

SMILES: CCC(C)CCCC(C)C (stereo not drawn) [2,6-Dimethyloctane]
flash point [2]: 41 °C

SMILES: CC(C)(C)C(C)(C)Cl [2-Chloro-2,3,3-trimethylbutane]
flash point: 24.4 °C

SMILES: CC(C)C(C)(C)Cl [2-Chloro-2,3-dimethylbutane]
flash point: 15.0 °C

SMILES: CCC[CH2][Sn]([CH2]CCC)([CH2]CCC)[c]1cccs1 [2-THIENYLTRI-n-BUTYLTIN]
flash point [1]: 106.00 °C

SMILES: C=C[CH2][Sn]([CH2]CCC)([CH2]CCC)[CH2]CCC [ALLYLTRI-n-BUTYLTIN]
flash point [1]: 103.00 °C

SMILES: CC(C)[O-].CC(C)[O-].CCOC(=O)CC(C)=O.[Al+2] [ALUMINUM DIISOPROPOXIDE ETHYLACETOACETATE]
flash point [4]: 50.00 °C

SMILES: CCCC[O-].CCCC[O-].CCCC[O-].[Sb+3] [ANTIMONY(III) n-BUTOXIDE]
flash point [4]: 68.00 °C

SMILES: C[Si](C)(C)[N]([Sn][N]([Si](C)(C)C)[Si](C)(C)C)[Si](C)(C)C [BIS[BIS(TRIMETHYLSILYL)AMINO]TIN(II)]
flash point [1]: 56.00 °C

SMILES: [CH3][Sn]([CH3])([CH3])[CH2]Cl [CHLOROMETHYLTRIMETHYLTIN]
flash point [1]: 39.00 °C

SMILES: CCC[CH2][Sn]([Cl])([Cl])[CH2]CCC [DI-n-BUTYLDICHLOROTIN]
flash point [1]: 168.00 °C

SMILES: C1CCC(PC2CCCCC2)CC1 [DICYCLOHEXYLPHOSPHINE]
flash point [4]: 110.00 °C

SMILES: CCC[CH2][Sn]([CH2]CCC)([CH2]CCC)[N](C)C [DIMETHYLAMINOTRI-n-BUTYLTIN]
flash point [1]: 115.00 °C

SMILES: CCCCCCC[CH2][Sn]([Cl])([Cl])[CH2]CCCCCCC [DIOCTYLDICHLOROTIN]
flash point [1]: 204.00 °C

SMILES: C=[CH][Sn]([Cl])([Cl])[CH]=C [DIVINYLDICHLOROTIN]
flash point [1]: 204.00 °C

SMILES: CCCC[O-].CCCC[O-].CCCC[O-].CCCC[O-].CCCC[O-].[Nb+5] [NIOBIUM(V) n-BUTOXIDE]
flash point [4]: 90.00 °C

SMILES: CCC[CH2][Sn]([C]#Cc1ccccc1)([CH2]CCC)[CH2]CCC [PHENYLETHYNYLTRI-n-BUTYLTIN]
flash point [1]: 113.00 °C

SMILES: CCCC[O-].CCCC[O-].CCCC[O-].CCCC[O-].CCCC[O-].[Ta+5] [TANTALUM(V) n-BUTOXIDE]
flash point [4]: 66.00 °C

SMILES: CC[N-]CC.CC[N-]CC.CC[N-]CC.CC[N-]CC.[Ti+4] [TITANIUM TETRAKIS(DIETHYLAMIDE)]
flash point [4]: 37.00 °C

SMILES: c1ccc(P(c2ccccc2)c2ccccc2)cc1 [TRIPHENYLPHOSPHINE]
flash point [4]: 182.00 °C

SMILES: C[N](C)[Ga]([N](C)C)[N](C)C [TRIS(DIMETHYLAMINO)GALLIUM]
flash point [4]: 56.00 °C

Continued, values first:

flash point: 29.8 °C
SMILES: CC(C)CC(C)(C)Cl [2-Chloro-2,4-dimethylpentane]

flash point: 21 °C
SMILES: CC(C)CC(C)Cl (stereo not drawn) [2-Chloro-4-methylpentane]

flash point: 35.2 °C
SMILES: CC(C)CCC(C)Cl (stereo not drawn) [2-Chloro-5-methylhexane]

flash point: 99.6 °C
SMILES: CCCCCCCCCCC(C)Cl (stereo not drawn) [2-Chlorododecane]

flash point: 39.2 °C
SMILES: CCCCCC(C)Cl (stereo not drawn) [2-Chloroheptane]

flash point [2]: -87 °C
SMILES: CC(C)C [2-Methylpropane]

flash point [2]: 15 °C
SMILES: CCC(C)C(C)(C)CC (stereo not drawn) [3,3,4-Trimethylhexane]

flash point [2]: -19 °C
SMILES: CCC(C)(C)CC [3,3-Dimethylpentane]

flash point [2]: 31 °C
SMILES: CCC(C)C(C)C(C)CC (stereo not drawn) [3,4,5-Trimethylheptane]

flash point [2]: 15 °C
SMILES: CCCC(C)C(C)CC (stereo not drawn) [3,4-Dimethylheptane]

flash point: 21 °C
SMILES: CCC(Cl)C(C)C (stereo not drawn) [3-Chloro-2-methylpentane]

flash point: 60.0 °C
SMILES: CCCCC(Cl)(CC)CC [3-Chloro-3-ethylheptane]

flash point: 33.6 °C
SMILES: CCCC(C)(Cl)CC (stereo not drawn) [3-Chloro-3-methylhexane]

flash point: 60.0 °C
SMILES: CCCCCC(C)(Cl)CC (stereo not drawn) [3-Chloro-3-methyloctane]

flash point: 52.6 °C
SMILES: CCCCCC(Cl)CC (stereo not drawn) [3-Chlorooctane]

flash point: 10 °C
SMILES: CCC(Cl)CC [3-Chloropentane]

flash point [2]: 38 °C
SMILES: CCCC(CC)C(C)(C)C (stereo not drawn) [3-Ethyl-2,2-dimethylhexane]

flash point [2]: 31 °C
SMILES: CCC(C)(C(C)C)C(C)C [3-Ethyl-2,3,4-trimethylpentane]

flash point [2]: -18 °C
SMILES: CCC(CC)CC [3-Ethylpentane]

flash point: 39.2 °C
SMILES: CCCC(Cl)CCC [4-Chloroheptane]

flash point [2]: 41 °C
SMILES: CCCC(CC)C(C)CC (stereo not drawn) [4-Ethyl-3-methylheptane]

flash point [2]: 41 °C
SMILES: CCCCC(CC)CCC (stereo not drawn) [4-Ethyloctane]

flash point: 99.5 °C
SMILES: CCCCCCCC(Cl)CCCC (stereo not drawn) [5-Chlorododecane]

flash point: 69 °C
SMILES: CCC(C)(Cl)CCCC(C)C (stereo not drawn) [6-Chloro-2,6-dimethyloctane]

flash point [3]: 62.00 °C
SMILES: C=CC(=O)OC[Si](OC)(OC)OC [ACRYLOXYMETHYLTRIMETHOXYSILANE]

flash point [3]: 76.00 °C
SMILES: C=CC[Si](Cl)(Cl)CCCCl [ALLYL(3-CHLOROPROPYL)DICHLOROSILANE]

flash point [3]: 102.00 °C
SMILES: C=CC[Si](C)(C)c1ccc(OC)cc1 [ALLYL(4-METHOXYPHENYL)DIMETHYLSILANE]

flash point [3]: 27.00 °C
SMILES: C=CC[Si](C)(C)CCl [ALLYL(CHLOROMETHYL)DIMETHYLSILANE]

flash point [3]: 10.00 °C
SMILES: C=CCN[Si](C)(C)C [ALLYLAMINOTRIMETHYLSILANE]

flash point [3]: -4.00 °C
SMILES: C=CC[SiH](Cl)Cl [ALLYLDICHLOROSILANE]

flash point [3]: 32.00 °C
SMILES: C=CCO[Si](C)(C)C(C)(C)C [ALLYLOXY-t-BUTYLDIMETHYLSILANE]

flash point [3]: 76.00 °C
SMILES: C=CC[Si](Cl)(Cl)c1ccccc1 [ALLYLPHENYLDICHLOROSILANE]

flash point [3]: 31.00 °C
SMILES: C=CC[Si](Cl)(Cl)Cl [ALLYLTRICHLOROSILANE]

flash point [3]: 47.00 °C
SMILES: C=CC[Si](OCC)(OCC)OCC [ALLYLTRIETHOXYSILANE]

flash point [3]: 76.00 °C
SMILES: C=CC[Si](C(C)C)(C(C)C)C(C)C [ALLYLTRIISOPROPYLSILANE]

flash point [3]: 7.00 °C
SMILES: C=CC[Si](C)(C)C [ALLYLTRIMETHYLSILANE]

flash point [3]: 73.00 °C
SMILES: C[Si](C)(Cl)Cc1ccccc1 [BENZYLDIMETHYLCHLOROSILANE]

flash point [4]: -18.00 °C
SMILES: [CH3][Al]([CH3])[Cl] [DIMETHYLALUMINUM CHLORIDE]

flash point [4]: 5.00 °C
SMILES: CC(C)[O][Al]([CH3])[CH3] [DIMETHYLISOPROPOXYALUMINUM]

flash point [3]: 148.00 °C
SMILES: CCO[Si](CCCNCCN)(OCC)OCC [N-(2-AMINOETHYL)-3-AMINOPROPYLTRIETHOXYSILANE]

flash point [3]: 150.00 °C
SMILES: CO[Si](CCCNCCN)(OC)OC [N-(2-AMINOETHYL)-3-AMINOPROPYLTRIMETHOXYSILANE]

flash point [3]: 66.00 °C
SMILES: COCN(Cc1ccccc1)C[Si](C)(C)C [N-BENZYL-N-METHOXYMETHYL-N-(TRIMETHYLSILYLMETHYL)AMINE]

flash point [4]: 260.00 °C
SMILES: CCCCN(CCCC)C(=S)[S-].CCCCN(CCCC)C(=S)[S-].[Ni+2] [NICKEL DI-n-BUTYLDITHIOCARBAMATE]

flash point [4]: 102.00 °C
SMILES: CC(C)(C)CCCCCC(=O)[O-].[Ag+] [SILVER NEODECANOATE]

flash point [4]: 118.00 °C
SMILES: CCCCCCCCCCCCCC[P+](CCCCCC)(CCCCCC)CCCCCC.[Cl-] [TETRADECYL(TRIHEXYL)PHOSPHONIUM CHLORIDE]

flash point [4]: 22.00 °C
SMILES: CC(C)[O-].CC(C)[O-].CC(C)[O-].[Cl-].[Ti+4] [TITANIUM CHLORIDE TRIISOPROPOXIDE]

flash point [4]: 25.00 °C
SMILES: CC(C)[O-].CC(C)[O-].CC(C)[O-].CC(C)[O-].[Ti+4] [TITANIUM ISOPROPOXIDE]

flash point [4]: 10.00 °C
SMILES: CC[N-]C.CC[N-]C.CC[N-]C.CC[N-]C.[Ti+4] [TITANIUM TETRAKIS(ETHYLMETHYLAMIDE)]

flash point [4]: 45.00 °C
SMILES: CCC[O-].CCC[O-].CCC[O-].CCC[O-].[Ti+4] [TITANIUM n-PROPOXIDE]

flash point [4]: -1.00 °C
SMILES: [CH3][Ga]([CH3])[CH3] [TRIMETHYLGALLIUM]

flash point [5]: 109.2 °C | flash point [2]: 99 °C
SMILES: CCCCCCCCCCCCCC [Tetradecane]

flash point [3]: 180.00 °C
SMILES: CO[Si](OC)(OC)c1cccc(N)c1 [m-AMINOPHENYLTRIMETHOXYSILANE]
